These results are taken from patent US20140249135A1, “PIM KINASE INHIBITORS AND METHODS OF THEIR USE” (NOVARTIS AG, priority 2007, published 2014).

The structures appear in SMILES notation. Read-outs that look alike come from different tables or passages of the source. Where only a bound is given, the exact number is not on record here.

The target in assay [1] is Pim1 kinase (Homo sapiens, UniProt P11309). Nature of the assay: Pim1 ATP depletion assay.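 Further: Luciferase-luciferin luminescence readout of residual ATP after PIM1 transfers phosphate to a peptide substrate, 40 µM ATP added, reaction run to roughly half ATP consumption.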 In kind it is biochemical.
Assay [2] deals with Pim2 kinase (Homo sapiens, UniProt Q9P1W9). Nature of the assay: Pim2 ATP depletion assay.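 Further: Luciferase-based luminescent readout of ATP remaining after PIM2 phosphorylates a BAD peptide, final 5 nM enzyme, 4 µM ATP, 10 µM peptide, 2.5% DMSO, run to roughly half ATP consumption.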 The format is biochemical.
Assay [3] concerns the target Pim3 kinase (Homo sapiens, UniProt Q86V86). Nature of the assay: Pim3 ATP depletion assay. The format is biochemical.
Assay [4] has as its system KMS 11 (human myeloma cell line). Nature of the assay: Cell proliferation assay (CellTiter-Glo), KMS 11. As to conditions: KMS11 cells. The format is cell-based. Here is the method:
(§1) KMS 11 (human myeloma cell line), were cultured in IMDM supplemented with 10% FBS, sodium pyruvate and antibiotics. Cells were plated in the same medium at a density of 2000 cells per well into 96 well tissue culture plates, with outside wells vacant, on the day of assay. MM1.s (human myeloma cell line), were cultured in RPMI1640 supplemented with 10% FBS, sodium pyruvate and antibiotics. Cells were plated in the same medium at a density of 5000 cells per well into 96 well tissue culture plates, with outside wells vacant, on the day of assay.
(§2) Test compounds supplied in DMSO were diluted into DMSO at 500 times the desired final concentrations before dilution into culture media to 2 times final concentrations. Equal volumes of 2× compounds were added to the cells in 96 well plates and incubated at 37° C. for 3 days.
(§3) After 3 days plates were equilibrated to room temperature and equal volume of CellTiter-Glow Reagent (Promega) was added to the culture wells. The plates were agitated briefly and luminescent signal was measured with luminometer. The percent inhibition of the signal seen in cells treated with DMSO alone vs. cells treated with control compound was calculated and used to determine EC50 values (i.e., the concentration of a test compound that is required to obtain 50% of the maximum effect in the cells) for tested compounds, as shown in Example 763.
(In general: ATP-based viability assays read luminescence as a measure of living cells.)

Assay [5] concerns MM1.s (human myeloma cell line). Nature of the assay: Cell proliferation assay (CellTiter-Glo), MM1.s. As to conditions: MM1.s cells. The format is cell-based. On the procedure:
as §1, §2, §3

[6] abbreviates: Pim1 ATP depletion assay, read-out: IC50 (μM) PIM1.
The mark [7] stands for this setting: Pim1 ATP depletion assay, read-out: PIM1 IC50.

Sequence of Pim2 kinase (Q9P1W9 whole entry): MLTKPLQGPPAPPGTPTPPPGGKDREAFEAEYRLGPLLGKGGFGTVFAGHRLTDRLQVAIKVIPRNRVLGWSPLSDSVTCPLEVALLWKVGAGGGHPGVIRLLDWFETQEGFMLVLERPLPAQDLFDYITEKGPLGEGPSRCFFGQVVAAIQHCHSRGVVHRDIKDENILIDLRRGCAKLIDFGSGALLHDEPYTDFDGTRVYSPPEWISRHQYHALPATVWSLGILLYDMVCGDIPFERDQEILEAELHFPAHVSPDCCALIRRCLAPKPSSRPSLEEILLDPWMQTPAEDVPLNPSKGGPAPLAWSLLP
Sequence of Pim1 kinase (P11309 whole entry): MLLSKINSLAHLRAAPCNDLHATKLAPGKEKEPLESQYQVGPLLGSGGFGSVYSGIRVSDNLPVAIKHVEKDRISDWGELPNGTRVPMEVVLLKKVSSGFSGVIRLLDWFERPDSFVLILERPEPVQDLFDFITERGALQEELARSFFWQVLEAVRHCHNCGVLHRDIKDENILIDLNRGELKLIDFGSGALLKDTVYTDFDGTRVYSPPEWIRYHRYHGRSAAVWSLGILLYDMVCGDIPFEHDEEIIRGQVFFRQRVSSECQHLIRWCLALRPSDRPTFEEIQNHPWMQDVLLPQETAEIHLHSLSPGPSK

By IC50 is commonly meant the concentration at which inhibition is half-maximal. One may read the EC50 as the concentration needed to bring the measured effect to its halfway point. For the molecule `CO[C@@H]1C[C@H](N)CN(c2ccncc2NC(=O)c2nc(-c3c(F)cccc3F)ccc2N)C1` [Example 300, 3-Amino-6-(2,6-difluoro-phenyl)-pyridine-2-carboxylic acid (3-amino-5-methoxy-3,4,5,6-tetrahydro-2H-[1,4′]bi-pyridinyl-3′-yl)-amide], the IC50 in assay [1] (setting [6]), in assay [2] (read-out: IC50 (μM) PIM2) and in assay [3] (read-out: IC50 (μM) PIM3) was under 1 µM each time. Moreover, the EC50 in assay [4] (read-out: EC50 (μM) KMS11) and in assay [5] (read-out: EC50 (μM) MM1.s) was under 1 µM throughout.

As to `N[C@H]1CCCN(c2ccncc2NC(=O)c2ccc(F)c(-c3ccccc3)n2)C1` [Example 442, 5-Fluoro-6-phenyl-pyridine-2-carboxylic acid (3-amino-3,4,5,6-tetrahydro-2H-[1,4′]bipyridinyl-3′-yl)-amide], the IC50 in assay [1] (setting [6]), in assay [2] (read-out: IC50 (μM) PIM2) and in assay [3] (read-out: IC50 (μM) PIM3) was under 1 µM throughout. For the same molecule, the EC50 in assay [4] (read-out: EC50 (μM) KMS11) was 1 to 5 µM; in assay [5] (read-out: EC50 (μM) MM1.s), 5 to 10 µM.

Turning to `CC(C)NC(=O)c1ccc(F)c(-c2nc(C(=O)Nc3cnccc3N3CCC[C@H](N)C3)ccc2F)c1` [Example 443, 5-Fluoro-6-(2-fluoro-5-isopropylcarbamoyl-phenyl)-pyridine-2-carboxylic acid (3-amino-3,4,5,6-tetrahydro-2H-[1,4′]bipyridinyl-3′-yl)-amide], the IC50 in assay [1] (setting [6]), in assay [2] (read-out: IC50 (μM) PIM2) and in assay [3] (read-out: IC50 (μM) PIM3) was under 1 µM in each case. Also, the EC50 in assay [4] (read-out: EC50 (μM) KMS11) was in the range of 1 to 5 µM; in assay [5] (read-out: EC50 (μM) MM1.s) it was 5 to 10 µM.

With `Nc1ccc(-c2c(F)cccc2F)nc1C(=O)Nc1cnccc1N1CCC[C@@H](N)C1` [Example 462, 3-Amino-6-(2,6-difluoro-phenyl)-pyridine-2-carboxylic acid (3-amino-3,4,5,6-tetrahydro-2H-[1,4′]bipyridinyl-3′-yl)-amide], the IC50 in assay [1] (setting [6]), in assay [2] (read-out: IC50 (μM) PIM2) and in assay [3] (read-out: IC50 (μM) PIM3) was under 1 µM in each case. In addition, the EC50 in assay [4] (read-out: EC50 (μM) KMS11) and in assay [5] (read-out: EC50 (μM) MM1.s) was 1 to 5 µM each time.

For the molecule `CCCOc1ccc(F)c(-c2ccc(N)c(C(=O)Nc3cnccc3N3CCC[C@H](N)C3)n2)c1F` [Example 491, 3-Amino-6-(2,6-difluoro-3-propoxy-phenyl)-pyridine-2-carboxylic acid (3-amino-3,4,5,6-tetrahydro-2H-[1,4′]bipyridinyl-3′-yl)-amide], the IC50 in assay [1] (setting [6]), in assay [2] (read-out: IC50 (μM) PIM2) and in assay [3] (read-out: IC50 (μM) PIM3) was under 1 µM in each case. Moreover, the EC50 in assay [4] (read-out: EC50 (μM) KMS11) and in assay [5] (read-out: EC50 (μM) MM1.s) was 1 to 5 µM each time.

For `CCCOc1ccc(F)c(-c2nc(C(=O)Nc3cnccc3N3CCC[C@H](N)C3)c(N)cc2F)c1F` [Example 494, 3-Amino-6-(2,6-difluoro-3-propoxy-phenyl)-5-fluoro-pyridine-2-carboxylic acid (3-amino-3,4,5,6-tetrahydro-2H-[1,4′]bipyridinyl-3′-yl)-amide], the IC50 in assay [1] (setting [6]), in assay [2] (read-out: IC50 (μM) PIM2) and in assay [3] (read-out: IC50 (μM) PIM3) was under 1 µM in each case. In addition, the results for the EC50 in assay [4] (read-out: EC50 (μM) KMS11) and in assay [5] (read-out: EC50 (μM) MM1.s) were under 1 µM and 1 to 5 µM, respectively.

Consider `CC(C)Oc1ccc(F)c(-c2nc(C(=O)Nc3cnccc3N3CCC[C@H](N)C3)c(N)cc2F)c1F` [Example 496, 3-Amino-6-(2,6-difluoro-3-isopropoxy-phenyl)-5-fluoro-pyridine-2-carboxylic acid (3-amino-3,4,5,6-tetrahydro-2H-[1,4′]bipyridinyl-3′-yl)-amide], for which the IC50 in assay [1] (setting [6]), in assay [2] (read-out: IC50 (μM) PIM2) and in assay [3] (read-out: IC50 (μM) PIM3) was under 1 µM each time. The EC50 in assay [4] (read-out: EC50 (μM) KMS11) and in assay [5] (read-out: EC50 (μM) MM1.s) was under 1 µM in each case.

`Nc1cc(F)c(-c2c(F)cccc2F)nc1C(=O)Nc1cnccc1N1CCC[C@H](N)C1` [Example 516, 3-Amino-6-(2,6-difluoro-phenyl)-5-fluoro-pyridine-2-carboxylic acid (3-amino-3,4,5,6-tetrahydro-2H-[1,4′]bipyridinyl-3′-yl)-amide]: the IC50 in assay [1] (setting [6]), in assay [2] (read-out: IC50 (μM) PIM2) and in assay [3] (read-out: IC50 (μM) PIM3) was under 1 µM each time. The EC50 in assay [4] (read-out: EC50 (μM) KMS11) and in assay [5] (read-out: EC50 (μM) MM1.s) was under 1 µM in each case.

Regarding `Nc1cc(F)c(-c2ccccc2F)nc1C(=O)Nc1cnccc1N1CCC[C@H](N)C1` [Example 517, 3-Amino-5-fluoro-6-(2-fluoro-phenyl)-pyridine-2-carboxylic acid (3-amino-3,4,5,6-tetrahydro-2H-[1,4′]bipyridinyl-3′-yl)-amide], the IC50 in assay [1] (setting [6]), in assay [2] (read-out: IC50 (μM) PIM2) and in assay [3] (read-out: IC50 (μM) PIM3) was under 1 µM in each case. Also, the EC50 in assay [4] (read-out: EC50 (μM) KMS11) and in assay [5] (read-out: EC50 (μM) MM1.s) was 1 to 5 µM each time.

On to `N[C@H]1CCCN(c2ccncc2NC(=O)c2nc(-c3c(F)cccc3F)ccc2F)C1` [Example 570, 6-(2,6-Difluoro-phenyl)-3-fluoro-pyridine-2-carboxylic acid (3-amino-3,4,5,6-tetrahydro-2H-[1,4′]bipyridinyl-3′-yl)-amide], for which the 50% inhibitory concentration (IC50) in assay [1] (setting [7]), in assay [2] (read-out: PIM2 IC50) and in assay [3] (read-out: PIM3 IC50) was under 1 µM each time. Further, the EC50 in assay [4] (read-out: KMS11 EC50) and in assay [5] (read-out: MM1.s EC50) was 1 to 5 µM each time.

`CCCOc1ccc(F)c(-c2ccc(N)c(C(=O)Nc3cnccc3N3C[C@@H](N)C[C@@H](F)C3)n2)c1` [Example 577, 3-Amino-6-(2-fluoro-5-propoxy-phenyl)-pyridine-2-carboxylic acid (3-amino-5-fluoro-3,4,5,6-tetrahydro-2H-[1,4′]bipyridinyl-3′-yl)-amide]: the IC50 in assay [1] (setting [7]), in assay [2] (read-out: PIM2 IC50) and in assay [3] (read-out: PIM3 IC50) was under 1 µM in each case. Also, the EC50 in assay [4] (read-out: KMS11 EC50) and in assay [5] (read-out: MM1.s EC50) was 1 to 5 µM each time.

Consider `CCCOc1ccc(F)c(-c2ccc(N)c(C(=O)Nc3cnccc3N3C[C@@H](N)C[C@@H](OC)C3)n2)c1` [Example 579, 3-Amino-6-(2-fluoro-5-propoxy-phenyl)-pyridine-2-carboxylic acid (3-amino-5-methoxy-3,4,5,6-tetrahydro-2H-[1,4′]bi-pyridinyl-3′-yl)-amide], for which the IC50 in assay [1] (setting [7]), in assay [2] (read-out: PIM2 IC50) and in assay [3] (read-out: PIM3 IC50) was under 1 µM in each case. Further, the EC50 in assay [4] (read-out: KMS11 EC50) is under 1 µM; in assay [5] (read-out: MM1.s EC50) it was 1 to 5 µM.

In the case of `CO[C@@H]1C[C@H](N)CN(c2ccncc2NC(=O)c2nc(-c3ccccc3)ccc2N)C1` [Example 580, 3-Amino-6-phenyl-pyridine-2-carboxylic acid (3-amino-5-methoxy-3,4,5,6-tetrahydro-2H-[1,4′]bipyridinyl-3′-yl)-amide], the IC50 in assay [1] (setting [7]), in assay [2] (read-out: PIM2 IC50) and in assay [3] (read-out: PIM3 IC50) was under 1 µM throughout. The EC50 in assay [4] (read-out: KMS11 EC50) and in assay [5] (read-out: MM1.s EC50) was 1 to 5 µM in each case.

In the case of `Nc1ccc(-c2c(F)cccc2F)nc1C(=O)Nc1cnccc1N1CC[C@@H](O)[C@H](N)C1` [Example 679, 3-Amino-6-(2,6-difluoro-phenyl)-pyridine-2-carboxylic acid (3-amino-4-hydroxy-3,4,5,6-tetrahydro-2H-[1,4′]bi-pyridinyl-3′-yl)-amide], the IC50 in assay [1], in assay [2] (read-out: PIM2 IC50) and in assay [3] (read-out: PIM3 IC50) was under 1 µM in each case. Also, the EC50 in assay [4] (read-out: KMS11 EC50) was 1 to 5 µM; in assay [5] (read-out: MM1.s EC50) it was under 1 µM.

Regarding `N[C@@H]1CN(c2ccncc2NC(=O)c2ccc(F)c(-c3c(F)cccc3F)n2)CC[C@H]1O` [Example 683, 6-(2,6-Difluoro-phenyl)-5-fluoro-pyridine-2-carboxylic acid (3-amino-4-hydroxy-3,4,5,6-tetrahydro-2H-[1,4′]bi-pyridinyl-3′-yl)-amide], the IC50 in assay [1] (setting [7]), in assay [2] (read-out: PIM2 IC50) and in assay [3] (read-out: PIM3 IC50) was under 1 µM each time. For the same molecule, the EC50 is under 1 µM in assay [4] (read-out: KMS11 EC50) and 1 to 5 µM in assay [5] (read-out: MM1.s EC50).

`Nc1ccc(-c2ncccc2F)nc1C(=O)Nc1cnccc1N1CCC[C@H](N)C1` [Example 702, 5-Amino-3′-fluoro-[2,2′]bi-pyridinyl-6-carboxylic acid (3-amino-3,4,5,6-tetrahydro-2H-[1,4′]bipyridinyl-3′-yl)-amide]: the IC50 in assay [1] (setting [7]), in assay [2] (read-out: PIM2 IC50) and in assay [3] (read-out: PIM3 IC50) was under 1 µM throughout. The EC50 in assay [4] (read-out: KMS11 EC50) and in assay [5] (read-out: MM1.s EC50) was 1 to 5 µM throughout.

Consider `CC(C)NC(=O)c1ccc(F)c(-c2nc(C(=O)Nc3cnccc3N3CCC[C@H](N)C3)c(N)cc2F)c1F` [Example 736, 3-Amino-6-(2,6-difluoro-3-isopropylcarbamoyl-phenyl)-5-fluoro-pyridine-2-carboxylic acid (3-amino-3,4,5,6-tetra-hydro-2H-[1,4′]bipyridinyl-3′-yl)-amide], for which the IC50 in assay [1] (setting [7]), in assay [2] (read-out: PIM2 IC50) and in assay [3] (read-out: PIM3 IC50) was under 1 µM each time. For the same molecule, the values for the EC50 in assay [4] (read-out: KMS11 EC50) and in assay [5] (read-out: MM1.s EC50) were under 1 µM and 1 to 5 µM, respectively.
